Activity calls are given as the source filed them. The rule behind the calls is not given here.

The nature of test [1]: (§1) Inhibition of D-DWEYS binding to mouse anti-dsDNA monoclonal antibody R4A pretreated for 1 hr followed by D-DWEYS peptide addition measured after 1 hr by ELISA. In general terms: An ELISA detects its analyte on a solid surface through an enzyme-linked reagent.
The species named for test [2] is Mus musculus. Put plainly: Inhibition of mouse glomerular binding to mouse anti-dsDNA monoclonal antibody R4A at 50 uM pretreated for 1 hr followed by glomerular addition by microscopic analysis.
For test [3], the species on record is Mus musculus. Described as §1.

For `O=C(O)c1ccc2ccccc2n1` [QUINALDIC ACID], the half-maximal inhibitory concentration (IC50) entry in test [1] is reported as “Not Active”.
The same measure, in the same setting: in the case of `CC(C)(C)NC(=O)[C@@H]1CC2CCCCC2CN1C[C@@H](O)[C@H](Cc1ccccc1)NC(=O)[C@H](CCN)NCc1ccc2ccccc2n1` (stereo partly drawn) it was “Not Active”.
Regarding `CC(C)(C)NC[C@@H]1CC2CCCCC2CN1C[C@@H](O)[C@H](Cc1ccccc1)NC[C@H](CCN)NC(=O)c1ccc2ccccc2c1` (stereo partly drawn), the inhibition result in the test listed under Mus musculus [2] was “Active”. In addition, the IC50 in test [1] (read-out: IC50) was 3.7 µM. Besides, in the test filed under Mus musculus [3], the inhibition result was “Dose-dependent effect”.
As to `CC(C)(C)NC(=O)[C@@H]1CC2CCCCC2CN1C[C@@H](O)[C@H](Cc1ccccc1)NC(=O)c1ccc2ccccc2n1` (stereo partly drawn), the IC50 in test [1] (read-out: IC50) is 88.7 µM.
In the case of `CC(C)(C)NC[C@@H]1CC2CCCCC2CN1C[C@@H](O)[C@H](Cc1ccccc1)NC[C@H](CCN)NC(=O)C1CCCCN1` (stereo partly drawn), in test [1] (read-out: IC50), the IC50 came to 10 µM.
For `CC(C)(C)NC[C@@H]1CC2CCCCC2CN1C[C@@H](O)[C@H](Cc1ccccc1)NC[C@H](CCN)NC(=O)c1ccc2ccccc2n1` (stereo partly drawn), the IC50 in test [1] (read-out: IC50) was 7.3 µM.
Consider `NCC[C@@H](CN[C@@H](Cc1ccccc1)[C@H](O)CN1CCOCC1)NC(=O)c1ccc2ccccc2c1`, for which the IC50 entry in test [1] is recorded as “Not Active”.
In the case of `CC(C)(C)NC[C@@H]1CC2CCCCC2CN1C[C@@H](O)[C@H](Cc1ccccc1)NC[C@H](CCN)NCC1CCc2ccccc2N1` (stereo partly drawn), the IC50 in test [1] (read-out: IC50) is 6.9 µM.
As to `OCC1Nc2ccccc2CC1O` (stereo not drawn), the IC50 entry in test [1] was “Not Active”.
In the case of `CC(C)(C)NC[C@@H]1CC2CCCCC2CN1C[C@@H](O)[C@H](Cc1ccccc1)NC(=O)c1ccc2ccccc2c1` (stereo partly drawn), the IC50 in test [1] (read-out: IC50) worked out at 6.8 µM.
For `CC(C)(C)NC[C@@H]1CC2CCCCC2CN1C[C@@H](O)[C@H](Cc1ccccc1)NC[C@H](CCN)NCC1Nc2ccccc2CC1O` (stereo partly drawn), the IC50 in test [1] (read-out: IC50) is 4.5 µM.
Take `CC(C)(C)NC[C@@H]1CC2CCCCC2CN1C[C@@H](O)[C@H](Cc1ccccc1)NC(=O)c1ccc2ccccc2n1` (stereo partly drawn): in the test listed under Mus musculus [2], the inhibition entry is “Active”. In test [1] (read-out: IC50), the IC50 amounted to 5.8 µM. Moreover, the inhibition entry in the test filed under Mus musculus [3] is “Dose-dependent effect”.
Regarding `CC(C)(C)NC[C@@H]1CC2CCCCC2CN1C[C@@H](O)[C@H](Cc1ccccc1)NC(=O)[C@H](CCN)NC(=O)c1nc2ccccc2cc1O` (stereo partly drawn), in test [1] (read-out: IC50), the IC50 was 19.7 µM.
For the molecule `CC(C)(C)NC[C@@H]1CC2CCCCC2CN1` (stereo partly drawn), the IC50 entry in test [1] is on record as “Not Active”.
Still for that read-out and setting: with `NCC[C@@H](CN[C@H](CO)Cc1ccccc1)NCC1CCc2ccccc2N1` (stereo partly drawn) the entry was “Not Active”.
`CC(C)(C)NC[C@@H]1CC2CCCCC2CN1C[C@@H](O)[C@@H](N)Cc1ccccc1` (stereo partly drawn): in the test filed under Mus musculus [3] (concentration not given here), the inhibition was less than 20%.
In the case of `CC(C)(C)NC[C@@H]1CC2CCCCC2CN1C[C@@H](O)[C@H](Cc1ccccc1)NC[C@H](CCN)NC(=O)c1ccccn1` (stereo partly drawn), the IC50 in test [1] (read-out: IC50) was determined as 12.5 µM.
The same measure, in the same setting: in the case of `CC(C)(C)NC[C@@H]1CC2CCCCC2CN1C[C@@H](O)[C@H](Cc1ccccc1)NC[C@@H](N)CCN` (stereo partly drawn) it was 27.3 µM.
Same read-out and setting: with `CC(C)(C)NC(=O)[C@@H]1CC2CCCCC2CN1C[C@@H](O)[C@H](Cc1ccccc1)NC(=O)c1ccc2ccccc2c1` (stereo partly drawn) the figure was more than 100 µM.

What is called IC50 is the concentration that gives 50% inhibition. The term inhibition denotes the relative decrease from the control value, in per cent.

(Values after ChEMBL document CHEMBL4043233, “A structural investigation of FISLE-412, a peptidomimetic compound derived from saquinavir that targets lupus autoantibodies” (Bioorg Med Chem Lett, 2017).)
